Test results taken from PMC10389753, “Rational Design of Chitin Deacetylase Inhibitors for Sustainable Agricultural Use Based on Molecular Topology” (Journal of Agricultural and Food Chemistry, 2022).

Tests used:
PxCDA2 = molecular target: T1, PxCDA2 (Podosphaera xanthii, UniProt A0A6S4IDJ3); assay: fluorescamine assay, colloidal chitin substrate; type: biochemical
T1 construct: recombinant, N-terminal 6-His tag, expressed in E. coli
From the text: fluorescamine assay, colloidal chitin substrate on PxCDA2

PxCDA1 = molecular target: T2, PxCDA1 (Podosphaera xanthii, UniProt A0A6S4IFB1); assay: fluorescamine assay, colloidal chitin substrate; type: biochemical
T2 construct: recombinant, N-terminal 6-His tag, expressed in E. coli
T2 sequence (A0A6S4IFB1 23-324 limits assumed): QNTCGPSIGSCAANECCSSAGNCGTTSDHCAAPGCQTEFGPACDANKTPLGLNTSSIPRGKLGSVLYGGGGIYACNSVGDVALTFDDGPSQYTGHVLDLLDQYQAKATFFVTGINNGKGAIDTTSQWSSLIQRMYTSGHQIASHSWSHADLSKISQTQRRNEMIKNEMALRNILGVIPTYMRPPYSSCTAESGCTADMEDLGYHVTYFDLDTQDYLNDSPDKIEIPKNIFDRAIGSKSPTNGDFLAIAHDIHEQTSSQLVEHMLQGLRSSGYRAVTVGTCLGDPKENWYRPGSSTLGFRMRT
From the text: fluorescamine assay, colloidal chitin substrate on PxCDA1

T1 sequence (A0A6S4IDJ3 23-314 limits assumed): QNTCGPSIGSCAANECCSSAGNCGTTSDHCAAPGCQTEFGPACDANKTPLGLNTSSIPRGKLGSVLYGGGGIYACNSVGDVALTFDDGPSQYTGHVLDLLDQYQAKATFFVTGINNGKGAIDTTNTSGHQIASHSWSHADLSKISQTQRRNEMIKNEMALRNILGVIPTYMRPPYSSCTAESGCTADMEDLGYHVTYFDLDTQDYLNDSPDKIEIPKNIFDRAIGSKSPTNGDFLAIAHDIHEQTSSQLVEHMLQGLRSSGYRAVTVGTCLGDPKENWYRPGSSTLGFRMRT

| Compound | inhibition at 100 µM (PxCDA2) | inhibition at 100 µM (PxCDA1) |
| --- | --- | --- |
| CN1C(=O)C(=Cc2cccc(OCC(=O)O)c2)C(=O)N(C)C1=O [VS#2-1] | 74.5% | 86.9% |
| Cn1c(=O)n(CC(=O)O)c(=O)c2c1nc1n2CCS1 [VS#2-2] | 93% | 79.4% |
| C=CCN1C(=O)NC(=O)/C(=C/c2ccc(OCC(=O)O)c(OC)c2)C1=O [VS#2-3] | 74.5% | 86.8% |
